Measurements: article PMC7600679, “Benzoxazole-Based Metal Complexes to Reverse Multidrug Resistance in Bacteria” (Antibiotics, 2020)

Test system: C. violaceum 026 sensor strain with AHL producer E. cloacae 31298
Test: Quorum sensing inhibition (agar diffusion, violacein production)
Assay type: cell-based, Chromobacterium violaceum
Settings: disc with 10 μL of 1 mM stock; reduction of violacein zone
Protocol: The following bacterial strains were applied in the QS tests: C. violaceum 026 as sensor strain and E. cloacae 31298 isolated from clinical wound (used as N-acyl-homoserine lactone (AHL) producer); this strain induced pigment production by C. violaceum and is a model strain to study QS interactions.
LB* was applied for these experiments. The sensor strain C. violaceum 026 and the AHL producer strains E. cloacae 31298 were inoculated as parallel lines and incubated at room temperature for 24–48 h. The inhibition of bacterial communication was determined by the agar diffusion method. Filter paper discs (7.0 mm in diameter) were impregnated with 10 μL of stock solutions (1 mM) of the compounds in DMSO. The discs were placed between the parallel lines of the sensor and the AHL producer strains. The plates were kept at room temperature for another 24–48 h, and the interactions between the strains and compounds were determined as the reduction in the size of the zone of purple pigment (violacein) production in millimeters. PMZ was applied as a positive control.

Row | Compound | Inhibition zone (quorum sensing) [mm]
1 | [O-]C(=Cc1nc2ccccc2o1)C(F)(F)Cl.[O-]C(=Cc1nc2ccccc2o1)C(F)(F)Cl.[Zn+2] [Compound 5] | 16
2 | O=C(Cc1nc2ccccc2o1)C(F)F [Compound 3] | 56
